Test results as given in US20210007356A1, “IMIDE DERIVATIVE AND FUNGICIDE CONTAINING SAID DERIVATIVE AS ACTIVE INGREDIENT” (HOKKO CHEMICAL INDUSTRY CO., LTD., priority 2018, published 2021).
Read-outs that look alike come from different tables or passages of the source.

How the values were obtained:
[1] = system: rice sheath blight fungus (Thanatephorus cucumeris); assay: Test Example 6: control effect against rice sheath blight by box treatment (flowable formulation); conditions: flowable 5,000 ppm, 50 mL irrigation of nursery box, paddy rice; inoculated after 3 weeks; 7 days after inoculation
[2] = system: rice blast fungus (Pyricularia grisea); assay type: in vivo; conditions: flowable 1,000 ppm, 1 mL dripped in paddy water, inoculated after 1 week, 7 days after inoculation
[3] = system: rice blast fungus (Pyricularia grisea); assay type: in vivo; conditions: 5 g of granule on nursery box, paddy rice; inoculated after 3 weeks; 7 days after inoculation
[4] = system: barley powdery mildew fungus (Erysiphe graminis); assay: Test Example 2: control effect against barley powdery mildew by foliage application; assay type: in vivo; conditions: wettable powder diluted to 100 ppm, 10 mL per pot foliage spray on barley; inoculated day after; 7 days after inoculation
[5] = system: rice sheath blight fungus (Thanatephorus cucumeris); assay: Test Example 10: control effect against rice sheath blight by water surface application (flowable formulation); conditions: flowable 1,000 ppm, 1 mL dripped in paddy water, inoculated after 1 week, 7 days after inoculation
Procedure: Control value (%)=[1−(lesion height in sprayed plot/lesion height in unsprayed plot)]×100 (d)
By dripping treatment in paddy water, 1 mL of a diluted solution (1,000 ppm) of a flowable prepared according to Formulation Example-3 was applied to a 5-leaf-stage paddy rice (variety: Asahi) seedling (5 seedlings/stub, one stub/pot) grown in a pot ( 1/10000 are in size) filled with paddy soil (flooded) within a greenhouse. After growing for 1 week within a greenhouse, a culture of rice sheath blight fungus (Thanatephorus cucumeris) grown in advance on a rice straw medium was inoculated into the root of the formulation-treated paddy rice, and disease development was promoted in an artificial weather chamber at 26° C. (relative humidity=100%). Seven days after the inoculation, the rice sheath blight lesion height (height from the root) was examined, and the control value (%) was calculated according to formula (d). […] This test was performed with three replications, each consisting of one plot and one pot, per one formulation plot, and its average evaluation value of control effect was determined.

[6] = system: rice blast fungus (Pyricularia grisea); assay type: in vivo; conditions: flowable 5,000 ppm, 50 mL irrigation of nursery box, paddy rice; inoculated after 3 weeks; 7 days after inoculation
[7] = system: rice sheath blight fungus (Thanatephorus cucumeris); assay: Test Example 8: control effect against rice sheath blight by box treatment (granule); conditions: 5 g of granule on nursery box, paddy rice; inoculated after 3 weeks; 7 days after inoculation

Row | Structure (SMILES) | evaluation value of control effect (from control value, lesion height) [1] | evaluation value of control effect (from control value, number of lesions) [2] | evaluation value of control effect (from control value, number of lesions) [3] | evaluation value of control effect (from control value, lesion area percentage) [4] | evaluation value of control effect (from control value, lesion height) [5] | evaluation value of control effect (from control value, number of lesions) [6] | evaluation value of control effect (from control value, lesion height) [7]
1 | CC(C)CCc1ccccc1N(C(=O)c1cn(C)nc1C(F)F)C(=O)c1snc(Cl)c1Cl [1-34] | 5 | 5 | 5 | 4 | 5 | 5 | 5
2 | Cc1cc(C(=O)N(C(=O)c2cn(C)nc2C(F)F)c2ccccc2C(C)CC(C)C)sn1 (centres unmarked) [1-136] | 5 | 5 | 5 | 4 | 5 | 5 | 5
3 | Cc1nnsc1C(=O)N(C(=O)c1cn(C)nc1C(F)F)c1ccccc1CCC(C)C [1-145] | 5 | 5 | 5 | 5 | 5 | 5 | 5
4 | Cc1nn(C)c(F)c1C(=O)N(C(=O)c1snnc1C(F)F)c1ccccc1C(C)CC(C)C (centres unmarked) [1-258] | 5 | 5 | 5 | 4 | 5 | 5 | 5
5 | Cc1nc(C(F)F)c(C(=O)N(C(=O)c2cn(C)nc2C(F)F)c2ccccc2C(C)CC(C)C)s1 (centres unmarked) [1-314] | 5 | 5 | 5 | 4 | 5 | 5 | 5
6 | CC(C)CC(C)c1ccccc1N(C(=O)c1cn(C)nc1C(F)F)C(=O)c1scnc1C(F)(F)F (centres unmarked) [1-333] | 5 | 5 | 5 | 4 | 5 | 5 | 5
7 | CC(C)CC(C)c1ccccc1N(C(=O)c1cn(C)nc1C(F)F)C(=O)c1scnc1C(F)F (centres unmarked) [1-341] | 5 | 5 | 5 | 4 | 5 | 5 | 5
8 | CC(C)CC(C)c1sccc1N(C(=O)c1cn(C)nc1C(F)(F)F)C(=O)c1snc(Cl)c1Cl (centres unmarked) [5-1, 3,4-Dichloro-N-{2-(1,3-dimethylbutyl)-3-thienyl}-N-{1-methyl-3-(trifluoromethyl)pyrazole-4-carbonyl}isothiazole-5-carboxamide] | – | 5 | 5 | 5 | – | 5 | –
9 | CCC(C)Oc1cccc(N(C(=O)c2sc(C)nc2C(F)F)C(=O)c2snc(Cl)c2Cl)c1C (centres unmarked) [7-125] | – | 5 | 5 | 4 | – | 5 | –
10 | CCc1nc(C(F)F)c(C(=O)N(C(=O)c2snc(Cl)c2Cl)c2ccccc2C(C)CC(C)C)s1 (centres unmarked) [7-132] | – | 5 | 5 | 4 | – | 5 | –
11 | Cc1nc(C(F)F)c(C(=O)N(C(=O)c2cccc3nnsc23)c2ccccc2C(C)CC(C)C)s1 (centres unmarked) [7-200] | – | 5 | 5 | 4 | – | 5 | –
12 | Cc1nc(C(F)F)c(C(=O)N(C(=O)c2snc(Cl)c2Cl)c2ccsc2C(C)CC(C)C)s1 (centres unmarked) [11-8] | – | 5 | 5 | 5 | – | 5 | –
13 | CC(C)CC(C)c1ccccc1N(C(=O)c1cccnc1C(F)(F)F)C(=O)c1snc(Cl)c1Cl (centres unmarked) [13-1] | – | 5 | 5 | 5 | – | 5 | –
14 | CC(C)CC(C)c1ccccc1N(C(=O)c1cccnc1F)C(=O)c1snc(Cl)c1Cl (centres unmarked) [13-51] | – | 5 | 5 | 4 | – | 5 | –
15 | Cc1ncccc1C(=O)N(C(=O)c1snc(Cl)c1Cl)c1ccccc1C(C)CC(C)C (centres unmarked) [13-52] | – | 5 | 5 | 4 | – | 5 | –
16 | CC1CC(C)(C)c2cccc(N(C(=O)c3cn(C)nc3C(F)F)C(=O)c3cccc4nnsc34)c21 (centres unmarked) [25-73] | – | 5 | 5 | 5 | – | 5 | –
17 | CC1CC(C)(C)c2cccc(N(C(=O)c3cn(C)nc3C(F)F)C(=O)c3scnc3C(F)F)c21 (centres unmarked) [25-109] | – | 5 | 5 | 4 | – | 5 | –
18 | Cc1nn(C)c(Cl)c1C(=O)N(C(=O)c1snnc1C(F)F)c1cccc2c1C(C)OC2(C)C (centres unmarked) [25-117] | 5 | 5 | 5 | – | 5 | 5 | 5
19 | CCc1nc(C(F)F)c(C(=O)N(C(=O)c2sc(C)nc2C(F)F)c2cccc3c2C(C)OC3(C)C)s1 (centres unmarked) [26-70] | 5 | 5 | 5 | – | 5 | 5 | 5
20 | Cc1nc(C(F)F)c(C(=O)N(C(=O)c2cc(Cl)c(Cl)s2)c2cccc3c2C(C)OC3(C)C)s1 (centres unmarked) [26-90] | 5 | 5 | 5 | – | 5 | 5 | 5
21 | Cc1nc(C(F)F)c(C(=O)N(C(=O)c2onc(Cl)c2Cl)c2cccc3c2C(C)OC3(C)C)s1 (centres unmarked) [26-92] | 5 | 5 | 5 | – | 5 | 5 | 5
22 | CC1OC(C)(C)c2cccc(N(C(=O)c3cccnc3C(F)F)C(=O)c3cccc4nnsc34)c21 (centres unmarked) [27-28] | 5 | 5 | 5 | – | 5 | 5 | 5
23 | Cc1nc(C(F)F)c(C(=O)N(C(=O)c2cccnc2C(F)F)c2cccc3c2C(C)OC3(C)C)s1 (centres unmarked) [27-36] | 5 | 5 | 5 | – | 5 | 5 | 5
